Results: BigSolDB 2.1

Structure (SMILES): O=C(NNC(=S)Nc1ccc(Cl)cc1)c1ccncc1
- solubility (mole fraction) (in PEG-400, 298.15 K): 0.108
- solubility (mole fraction) (in PEG-400, 308.15 K): 0.114
- solubility (mole fraction) (in PEG-400, 318.15 K): 0.12
- solubility (mole fraction) (in PEG-400, 328.15 K): 0.126
- solubility (mole fraction) (in PEG-400, 338.15 K): 0.131
- solubility (mole fraction) (in ethanol, 298.15 K): 0.000647
- solubility (mole fraction) (in ethanol, 308.15 K): 0.000693
- solubility (mole fraction) (in ethanol, 318.15 K): 0.000743
- solubility (mole fraction) (in ethanol, 328.15 K): 0.000792
- solubility (mole fraction) (in ethanol, 338.15 K): 0.000834
- solubility (mole fraction) (in ethylene glycol, 298.15 K): 0.0077
- solubility (mole fraction) (in ethylene glycol, 308.15 K): 0.00841
- solubility (mole fraction) (in ethylene glycol, 318.15 K): 0.00894
- solubility (mole fraction) (in ethylene glycol, 328.15 K): 0.00961
- solubility (mole fraction) (in ethylene glycol, 338.15 K): 0.0104
- solubility (mole fraction) (in isopropanol, 298.15 K): 0.00113
- solubility (mole fraction) (in isopropanol, 308.15 K): 0.00121
- solubility (mole fraction) (in isopropanol, 318.15 K): 0.00121
- solubility (mole fraction) (in isopropanol, 328.15 K): 0.00129
- solubility (mole fraction) (in isopropanol, 338.15 K): 0.00138
- solubility (mole fraction) (in propylene glycol, 298.15 K): 0.00738
- solubility (mole fraction) (in propylene glycol, 308.15 K): 0.00789
- solubility (mole fraction) (in propylene glycol, 318.15 K): 0.00848
- solubility (mole fraction) (in propylene glycol, 328.15 K): 0.00909
- solubility (mole fraction) (in propylene glycol, 338.15 K): 0.00987
